Assay results: patent EP0414688B1, “PROCESS FOR REGULATING THE ABSORPTION RATE OF DRUGS AND A PHARMACEUTICAL FORMULATION” (NEUVONEN, Pertti J., priority 1988, dated 1989)

How the values were obtained:
[1] = cross-over study of oral absorption with concomitant magnesium hydroxide; assay type: in vivo, test persons
Procedure: In persons having a poor absorption of fenamates the increase of peak concentrations of e.g. tolfenamic acid can be up to 10-fold through the action of magnesium hydroxide (fig. 4).
Since medicines are generally taken with water, the administration of pharmaceutical tablets in the above tests was immediately followed by 150 ml of water with magnesium hydroxide blended therein.

[2] = Pentikainen et al., European Journal of Clinical Pharmacology 1984; cited from earlier work

| increase of peak concentrations through the action of magnesium hydroxide ([1]; human, in vivo) | Structure (SMILES) | rate of absorption ([1]; ibuprofen 400 mg (tabl. BURANA), concomitant ingestion of Mg-hydroxide) | absorption from alimentary canal [2] |
| --- | --- | --- | --- |
|  | CC(C)Cc1ccc(C(C)C(=O)O)cc1 (stereo not drawn) [ibuprofen] | accelerated significantly |  |
| up to 10 fold | Cc1c(Cl)cccc1Nc1ccccc1C(=O)O [tolfenamic acid] |  | relatively slow |
